In ChEMBL document CHEMBL1123460, “Synthesis and biochemical properties of 8-amino-6-fluoro-9-beta-D-ribofuranosyl-9H-purine” (J Med Chem, 1986) one finds Km and IC50 data, which are given here for three compounds.

Series [1] in a line: Compound was evaluated for the apparent Km value. The class given is ADME.
Series [2] deals with HEp-2. Nature of the series: Compound was evaluated for the cytotoxicity against H.Ep.-2 cells. In kind it is functional, cell-based. The note with it: Homo sapiens.
In series [3] the test system is L1210. Description: Compound was evaluated for the cytotoxicity against L1210 cells. In kind it is functional, cell-based. The conditions noted are these: Mus musculus.
The subject of series [4] is L1210. Description: Compound was evaluated for the cytotoxicity against L1210 cells in presence of coformycin. In kind it is functional, cell-based. The note with it: Mus musculus.
Series [5] deals with L1210. Nature of the series: Compound was evaluated for the cytotoxicity against L1210 cells in absence of coformycin. The class given is functional, cell-based. The note with it: Mus musculus.

Consider `Nc1nc2c(F)ncnc2n1C1O[C@H](CO)[C@@H](O)[C@H]1O` (stereo partly specified), for which, in series [1], the Km was determined as 1000 µM. Also, the IC50 in series [2] was 1.8 µM; in series [3] it was 1.9 µM.

In the case of `Nc1ncnc2c1ncn2[C@@H]1O[C@H](CO)[C@@H](O)[C@H]1O` [ADENOSINE], the Km in series [1] worked out at 29 µM.

As to `OC[C@H]1O[C@@H](n2cnc3c2N=CNC[C@H]3O)C[C@@H]1O` [PENTOSTATIN], the results for the IC50 in series [4] and in series [5] were 0.25 µM and 1.9 µM, respectively.

One may read the Km as the substrate concentration at which the rate is half of its maximum. In general, IC50 refers to the point on the concentration scale where inhibition reaches its midpoint.
